Source: patent publication US4309559A, “Sulphonamides useful as pesticides” (FBC Limited, priority 1977, dated 1982)

How the values were obtained:
[1] = system: barley powdery mildew Erysiphe graminis; test: Barley powdery mildew control on barley plants; type: in vivo; conditions: 2000 ppm; soil and leaves; 10 days; controls less than 5%
Pythium ultimum [2] = test: Fungal growth on the surface of soil infected with damping-off disease organism; type: in vivo; conditions: 300 ppm; 6 days, 25° C.; 0-8 scale (Examples 233, 234, 268)
Procedure: (§1) A one week old maize meal/sand culture of the damping-off disease organism Pythium ultimum was thoroughly mixed by hand with clean sterile John Innes No. 1 potting compost in the ratio of 3 kg culture to 12 liters of soil. The infected soil was then left for approximately 18 hours before use. Each of the compounds listed below was ground together with a wetting agent, Tween 20 (1% of final volume), until a solution or fine suspension was produced which was then diluted with distilled water to give 160 ml of solution containing 1500, 500, 150 or 50 ppm active ingredient. 15 ml aliquots of this solution were added to 75 g portions of the soil infected with Pythium ultimum which were contained in small plastic cartons, 60 mm diameter×55 mm high. Fifteen cabbage seeds, variety Flower of Spring, were placed in a circular depression in the treated infected soil, recovered, and the whole sealed with a plastic cap. The cartons were then placed in a constant temperature room at 25° C.±1° C. Four replications per treatment were made with one additional treatment where seeds were sown in soil which was chemically treated only, i.e. there was no infection. This latter treatment was included to measure the direct effect of the chemical on the germination of the seed. After six days the cartons were removed from the controlled temperature chamber and assessed for degree of fungal growth on the soil surface and percentage of seedling emergence. The results of both these assessments are expressed in a 0-8 scale as follows:
(§2) One week old maize meal/sand culture of the damping-off disease organism Pythium ultimum was thoroughly mixed by hand with clean sterile John Innes No. 1 potting compost in the ratio of 3 kg culture to 12 liters of soil. This infected soil was then left for approximately 18 hours before use. The compounds listed in the Table below were each ground with the wetting agent Tween 20 (1% of final volume), until a solution or fine suspension was produced, which was then diluted with distilled water to give 160 ml of solution containing 1500 or 500 parts per million (ppm) active ingredient. 15 ml aliquots of this solution were added to 75 g portions of the soil infected with Pythium ultimum which were contained in small plastic cartons, 60 mm diameter×55 mm high.
(§3) Fifteen cabbage seeds, variety Flower of Spring, were placed in a circular depression in the treated infected soil, recovered, and the whole sealed with a plastic cap. The cartons were then placed in a constant temperature room at 25° C.±1° C. Four replications per treatment were made, with one additional treatment where seeds were sown in soil which was chemically treated only, i.e. there was no infection. This latter treatment was included to measure the direct effect of the chemical on the germination of the seed.
(§4) After six days, the cartons were removed from the controlled temperature chamber and assessed for degree of fungal growth on the soil surface and percentage of seedling emergence. The results of both these assessments are expressed in a 0-8 scale as follows:
(§5) N-(2-oxopropyl)-3',4'-dimethyl-methanesulphonanilide was tested at a dose rate of 300 ppm in the test described in Examples 233 and 234. It gave a mycelial control score of 0 and a germination score of 3 whereas the untreated samples gave a score of 0 for both.

[3] = system: potato blight Phytophthora infestans; type: in vivo; conditions: 2000 ppm; 5 days; controls less than 5%
Pythium ultimum [4] = test: Cabbage seedling emergence in soil infected with Pythium ultimum; type: in vivo, Pythium ultimum (on cabbage, variety Flower of Spring); conditions: 300 ppm; 6 days, 25° C.; 0-8 scale (Examples 233, 234, 268)
Procedure: as §1, §2, §3, §4, §5

[5] = system: rice blast Pyricularia oryzae; type: in vivo; conditions: 2000 ppm; soil and leaves; 7 days; controls less than 5%
[6] = system: cucumber powdery mildew Erysiphe cichoracearum; test: Cucumber powdery mildew control on cucumber plants; type: in vivo; conditions: 2000 ppm; soil and leaves; 14 days; controls less than 5%
[7] = system: vine downy mildew Plasmopara viticola; test: Vine downy mildew control on vine plants (leaf application); type: in vivo; conditions: leaves, 12 days, controls less than 5%
Procedure: Aqueous acetone solutions or suspensions containing 2000 or 500 mg of the compound listed below per liter, together with 125 mg of a wetting agent per liter, were applied to:
(B) the leaves of vine plants having five fully expanded leaves;
The treated plants, together with controls treated with wetting agent alone, were inoculated 24 hours after the chemical application:
in the case of (B) with an aqueous suspension of sporangia of the disease organism vine downy mildew Plasmopara viticola;
in the case of (B) were placed in an atomosphere of 80-100% humidity at 14°-18° C. until the disease incidence was measured twelve days later;

CC(=O)CN(c1ccc(C)c(C)c1)S(C)(=O)=O [Example 272, N-(2-oxopropyl)-3',4'-dimethylmethanesulphonanilide] was tested, and the “% Control, barley powdery mildew” value [1] was 99%, the “Mycelial Control Score” value (Pythium ultimum [2]) was 0 (<20% inhibition) and the “% Control, potato blight” value [3] was 62%. The “Germination Score” value (Pythium ultimum [4]) was 3 (45-54% inhibition) and the “% Control, rice blast” value [5] was 67%.

Cc1cccc(C)c1N(C1CCOC1=O)S(C)(=O)=O (stereo not shown) [Example 123] was tested, and the “% Control, cucumber powdery mildew” value [6] was 92% and the “% Control, barley powdery mildew” value [1] was 95%.

With CS(=O)(=O)N(CC#N)c1ccc(SC#N)cc1 [Example 141] the “% Control, rice blast” value [5] was 84%.

For COC(=O)C(C)N(c1c(C)cccc1C)S(C)(=O)=O (stereo not shown) [Example 29, N-(1-(methoxycarbonyl)ethyl)-2',6'-dimethyl-methanesulphonanilide], the “% Control, vine downy mildew” value ([7]; 500 ppm) was 90% and the “% Control, vine downy mildew” value ([7]; 2000 ppm) was 98%.
